Measured values: US11053226B2, “KRAS G12C inhibitors and methods of using the same” (Amgen Inc., priority 2018, dated 2021)
Read-outs that look alike come from different tables or passages of the source.

How the values were obtained:
[1] = target: GDP-bound KRAS protein (aa 1-169), containing both G12C and C118A amino acid substitutions (Homo sapiens (Human), UniProt P01116, C118A/G12C); test: Coupled Nucleotide Exchange Assay; format: biochemical
Experimental: For compounds in Table 9, the following assay conditions were employed:
Coupled Nucleotide Exchange Assay:
The assay plates were then read on a PerkinElmer EnVision Multilabel Reader, using AlphaScreen® technology, and data were analyzed using a 4-parameter logistic model to calculate IC50 values.

[2] = tested on: Phosphorylation of ERK1/2 in MIA PaCa-2 cells; test: Phospho-ERK1/2 MSD Assay; format: cell-based; conditions: Homo sapiens, MiaPaCa-2 cells
[3] = tested on: Phosphorylation of ERK1/2 in A549 cells; test: Phospho-ERK1/2 MSD Assay (A549); format: cell-based; conditions: Homo sapiens
[4] = read-out: Coupled Exchange IC50 (2 h), 2 h compound pre-incubation
[5] = read-out: Coupled Exchange IC50 (20 h), 20 h compound pre-incubation
[6] = MIA PaCa-2, 4 h, read-out: pERK IC50 (4 h, MiaPaCa-2), 4 h compound treatment
[7] = A549, 4 h, read-out: pERK IC50 (4 h, A549), 4 h compound treatment
[8] = MIA PaCa-2, read-out: pERK IC50 (4 h), 4 h compound treatment
[9] = read-out: pERK IC50 (4 h), 4 h compound treatment

GDP-bound KRAS protein (aa 1-169), containing both G12C and C118A amino acid substitutions, sequence (P01116 other isoform, or with tags, fused parts or gaps G12C/C118A): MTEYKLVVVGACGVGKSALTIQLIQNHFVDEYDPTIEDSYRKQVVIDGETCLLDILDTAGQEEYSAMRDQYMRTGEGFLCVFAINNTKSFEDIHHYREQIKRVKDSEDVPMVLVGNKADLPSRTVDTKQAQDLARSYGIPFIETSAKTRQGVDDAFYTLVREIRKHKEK

SMILES | IC50 [1, 4] [µM] | IC50 [1, 5] [µM] | IC50 [2, 6] [µM] | IC50 [3, 7] [µM] | IC50 [2, 8] [µM] | IC50 [3, 9] [µM] | IC50 ([1]; read-out: Coupled Exchange IC50 (5 min), 5 min compound pre-incubation) [µM]
C=CC(=O)N1CC(NC(=O)Cn2cc(C(=O)NCC(CC)Oc3cccc(Cl)c3)c3cc(Br)ccc32)C1 (centres unmarked) [Example 152] | 1.8 | 0.47 | 51.6 | 68.8 |  |  | 
C=CC(=O)N1CC(NC(=O)Cn2cc(I)c3cc(Br)cc(C)c32)C1 [Example 153] | 1.58 | 0.26 |  |  | 51.8 | > 100 | 
C=CC(=O)N1CC(NC(=O)Cn2cc(Cl)c3cc(Br)ccc32)C1 [Example 154] | 5.12 | 0.86 |  |  | 52.1 | > 100 | 56.2
C=CC(=O)N1CC(NC(=O)Cn2cc(C(=O)N(C)CC(=O)Nc3ccc(Cl)c(C(F)(F)F)c3)c3cc(Br)ccc32)C1 [Example 158] | 0.44 | 0.16 | 53.9 | > 100 |  |  | 
C=CC(=O)N1CC(NC(=O)Cn2c3c(c4cc(Br)ccc42)CCCC3)C1 [Example 160] | 4.95 | 1.07 |  |  | 58.3 | > 100 | 
C=CC(=O)N1CC(NC(=O)Cn2cc(C(=O)NCCc3ccc(Cl)cc3Cl)c3cc(Br)ccc32)C1 [Example 161] | 0.99 | 0.23 | 79.5 | > 100 |  |  | 
C=CC(=O)N1CC(NC(=O)Cn2cc(C(=O)NCCc3ccc(Cl)cc3Cl)c3cc(Br)cc(C)c32)C1 [Example 162] | 0.76 | 0.26 | 81.5 | > 100 |  |  | 
C=CC(=O)N1CC(NC(=O)Cn2c(C(=O)NCc3ccccc3)cc3cc(Br)ccc32)C1 [Example 164] | 10.7 | 1.11 |  |  | > 100 | > 100 | 
C=CC(=O)N1CC(NC(=O)Cn2ccc3cc(Cl)cc(Cl)c32)C1 [Example 165] | 13.2 | 2.65 |  |  | > 100 | > 100 | 
C=CC(=O)N1CC(NC(=O)Cn2cc(C(=O)NCCC(=O)Nc3cccc4ccccc34)c3cc(Br)ccc32)C1 [Example 170] | 3 | 0.65 | > 100 | > 100 |  |  | 
C=CC(=O)N1CC(NC(=O)Cn2cc(C(=O)NCCc3nc(C)c(C)s3)c3cc(Br)ccc32)C1 [Example 176] | 2.8 | 0.6 | > 100 | > 100 |  |  | 
C=CC(=O)N1CC(NC(=O)Cn2cc(C(=O)NCCC(=O)Nc3ccccc3CC)c3cc(Br)cc(C)c32)C1 [Example 177] | 0.43 | 0.17 | > 100 | > 100 |  |  | 
C=CC(=O)N1CC(NC(=O)Cn2cc(C(=O)NCCc3ccc(Cl)cc3Cl)c3cc(Cl)cc(Cl)c32)C1 [Example 178] | 0.63 | 0.22 | > 100 | > 100 |  |  | 
